Results reported in patent US12612407B2, “Imidazo[2,1-f][1,2,4]triazin-4-amine derivatives as TLR7 agonist” (BEIGENE, LTD., priority 2020, dated 2026).

Assays:
Format in all cases: cell-based
[1] = target: T1, human TLR7 (Homo sapiens, UniProt Q9NYK1); assay: TLR7 Stimulation Determined Using HEK-Blue Detection; details: HEK-Blue hTLR7 cells, 16 hr, percentages of maximum activation with Resiquimod, Table 1, B233-B247
T1 construct: host or cells: HEK293 (HEK-Blue hTLR7)
T1 sequence (Q9NYK1 27-1049): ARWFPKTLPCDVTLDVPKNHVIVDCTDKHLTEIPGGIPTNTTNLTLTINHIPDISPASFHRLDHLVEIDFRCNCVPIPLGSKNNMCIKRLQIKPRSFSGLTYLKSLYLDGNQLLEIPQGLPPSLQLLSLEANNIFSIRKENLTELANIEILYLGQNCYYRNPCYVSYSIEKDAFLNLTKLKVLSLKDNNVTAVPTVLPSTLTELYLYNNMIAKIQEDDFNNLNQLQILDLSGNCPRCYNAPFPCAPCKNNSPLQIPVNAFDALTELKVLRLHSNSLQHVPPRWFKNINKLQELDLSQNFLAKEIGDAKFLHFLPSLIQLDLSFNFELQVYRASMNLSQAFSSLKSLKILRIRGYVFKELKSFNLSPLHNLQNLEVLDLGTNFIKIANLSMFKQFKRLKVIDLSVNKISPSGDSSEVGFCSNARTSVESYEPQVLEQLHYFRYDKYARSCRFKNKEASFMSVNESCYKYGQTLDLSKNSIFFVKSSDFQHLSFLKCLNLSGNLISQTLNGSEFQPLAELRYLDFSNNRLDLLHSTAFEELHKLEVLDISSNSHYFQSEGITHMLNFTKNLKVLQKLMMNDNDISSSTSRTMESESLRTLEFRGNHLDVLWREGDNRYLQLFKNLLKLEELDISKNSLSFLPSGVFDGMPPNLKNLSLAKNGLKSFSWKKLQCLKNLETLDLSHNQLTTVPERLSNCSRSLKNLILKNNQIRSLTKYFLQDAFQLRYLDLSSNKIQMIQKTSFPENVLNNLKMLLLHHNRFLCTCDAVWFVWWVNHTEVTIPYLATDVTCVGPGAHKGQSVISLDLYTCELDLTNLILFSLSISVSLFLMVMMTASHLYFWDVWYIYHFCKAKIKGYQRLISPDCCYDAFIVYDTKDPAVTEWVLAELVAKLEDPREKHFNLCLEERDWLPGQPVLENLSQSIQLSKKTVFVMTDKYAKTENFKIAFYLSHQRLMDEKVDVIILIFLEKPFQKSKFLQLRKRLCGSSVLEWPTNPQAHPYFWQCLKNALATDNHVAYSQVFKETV
Source text: TLR7 Stimulation Determined Using HEK-Blue Detection
(§1) This assay was designed for studying the stimulation of human TLR7 protein in HEK-Blue hTLR7 tool cell line by monitoring the activation of NF-κB. HEK-Blue hTLR7 cells were obtained by co-transfection of the hTLR7 gene and an optimized secreted embryonic alkaline phosphatase (SEAP) reporter gene into HEK293 cells. The SEAP reporter gene was placed under the control of the IFN-β minimal promoter fused to five NF-κB and AP-1-binding sites. Stimulation with a TLR7 ligand activates NF-κB and AP-1 which induce the expression of SEAP. Levels of SEAP can be easily determined with HEK-Blue Detection, a cell culture medium that allows for real-time detection of SEAP. HEK-Blue Detection contains all the nutrients necessary for cell growth and a specific SEAP color substrate. The hydrolysis of the substrate by SEAP produces a purple/blue color that can be measured with a spectrophotometer.
(§2) When growing to 50-80% confluency, HEK-Blue hTLR7 cells were plated into 96-well plate (costar 3599) at a density of 40000 cells/well. Then compounds were added with serial dilutions over 10 points with a 0.04 nM-10 μM final concentration range in 0.1% DMSO/HEK-Blue Detection. The plates were then incubated for 16 hr at 37° C. in 5% CO2 and vortex for 30 s before measurement. The optical density at 620-655 nm was read on BMG PHERAstar FSX instrument. The EC50 for each compound was determined by calculating the percentages of the maximum activation identified with Resiquimod.

[2] = target: T2, human TLR 8 protein (Homo sapiens, UniProt Q9NR97); assay: TLR8 Stimulation determined using HEK-Blue Detection; details: HEK-Blue hTLR8 cells, 16 hr, percentages of maximum activation with Resiquimod or Motolimod, Table 3
T2 construct: expressed in transfected cells; host or cells: HEK293 (HEK-Blue hTLR8)
T2 sequence (Q9NR97 27-1041): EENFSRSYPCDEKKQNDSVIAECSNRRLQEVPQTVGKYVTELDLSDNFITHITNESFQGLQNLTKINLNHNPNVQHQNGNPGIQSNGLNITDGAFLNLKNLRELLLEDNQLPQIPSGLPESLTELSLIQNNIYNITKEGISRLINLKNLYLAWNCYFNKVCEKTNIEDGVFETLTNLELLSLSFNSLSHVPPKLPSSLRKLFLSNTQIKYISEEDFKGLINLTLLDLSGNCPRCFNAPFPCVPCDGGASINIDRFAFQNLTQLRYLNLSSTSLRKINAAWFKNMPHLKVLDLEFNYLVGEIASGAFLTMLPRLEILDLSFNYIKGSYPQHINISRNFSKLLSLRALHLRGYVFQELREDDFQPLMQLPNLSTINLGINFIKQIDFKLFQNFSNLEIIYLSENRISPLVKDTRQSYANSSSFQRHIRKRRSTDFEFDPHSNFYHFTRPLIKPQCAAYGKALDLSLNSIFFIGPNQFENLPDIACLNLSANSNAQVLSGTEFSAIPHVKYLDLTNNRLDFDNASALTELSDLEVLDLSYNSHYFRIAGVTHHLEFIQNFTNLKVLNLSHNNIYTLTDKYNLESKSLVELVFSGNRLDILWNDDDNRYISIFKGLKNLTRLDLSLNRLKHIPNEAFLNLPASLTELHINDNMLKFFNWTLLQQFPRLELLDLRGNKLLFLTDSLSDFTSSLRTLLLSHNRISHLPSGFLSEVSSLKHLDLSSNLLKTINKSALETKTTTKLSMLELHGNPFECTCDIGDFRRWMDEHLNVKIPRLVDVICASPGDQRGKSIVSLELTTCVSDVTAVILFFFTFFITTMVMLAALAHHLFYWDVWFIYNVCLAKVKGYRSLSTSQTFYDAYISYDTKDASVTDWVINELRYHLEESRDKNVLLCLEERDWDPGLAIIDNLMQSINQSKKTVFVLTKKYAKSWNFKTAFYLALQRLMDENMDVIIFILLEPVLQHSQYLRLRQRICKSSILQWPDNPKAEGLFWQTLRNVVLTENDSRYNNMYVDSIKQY
Source text: TLR8 Stimulation determined using HEK-Blue Detection
as §1, with “TLR 8” for “TLR7”, “hTLR8” for “hTLR7”
as §2, with “hTLR7/8” for “hTLR7”, “1” for “0.04”, “uM” for “μM”, “CO2.” for “CO2 and vortex for 30 s before measurement.”, “Resiquimod or Motolimod.” for “Resiquimod.”

[3] = target: T1, human TLR7; assay: HEK293-Blue hTLR7 Reporter Assay (QUANTI-BLUE, SEAP readout); details: HEK-Blue-hTLR7 cells, 24 hrs treatment, Table 1, B1-B232
In short: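 Compound titrations were applied for 24 h at 37° C to reporter HEK293 cells (4×10^4 per well) in which human TLR7 activation drives secreted alkaline phosphatase. Supernatants reacted with Quanti-blue 10-30 min, absorbance read at 620-655 nm, and EC50 derived by sigmoidal curve fitting.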

SMILES	EC50 [1] [nM]	EC50 [2] [nM]	EC50 [3] [nM]
CCCC(O)COc1nc(N)c2ncc(Cc3cnc(N4CCC(CNC)CC4)c(C)c3)n2n1 (stereo not shown) [Compound B236, 1-((4-amino-7-((5-methyl-6-(4-((methylamino)methyl)piperidin-1-yl)pyridin-3-yl)methyl)imidazo[2,1-f][1,2,4]triazin-2-yl)oxy)pentan-2-ol]	648	> 10000	
CCCC(C)Oc1nc(N)c2ncc(Cc3cnc(N4CCC(CNCC(C)C)CC4)c(C)c3)n2n1 (stereo not shown) [Compound B234, 7-((6-(4-((isobutylamino)methyl)piperidin-1-yl)-5-methylpyridin-3-yl)methyl)-2-(pentan-2-yloxy)imidazo[2,1-f][1,2,4]triazin-4-amine]	5.3	451	
CCCC(C)Oc1nc(N)c2ncc(Cc3cnc(N4CCC(CNCCOC)CC4)c(C)c3)n2n1 (stereo not shown) [Compound B237, 7-((6-(4-(((2-methoxyethyl)amino)methyl)piperidin-1-yl)-5-methylpyridin-3-yl)methyl)-2-(pentan-2-yloxy)imidazo[2,1-f][1,2,4]triazin-4-amine]	8.5		
CCC[C@H](C)Nc1nc(N)c2ncc(Cc3cnc(N4CCN(CCO)CC4)c(C)c3)n2n1 [Compound B247, (S)-2-(4-(5-((4-amino-2-(pentan-2-ylamino)imidazo[2,1-f][1,2,4]triazin-7-yl)methyl)-3-methylpyridin-2-yl)piperazin-1-yl)ethan-1-ol]	0.6	> 10000	
CCC[C@H](C)Nc1nc(N)c2ncc(Cc3cnc(N4CCN(C(=O)CN)CC4)c(C)c3)n2n1 [Compound B246, (S)-2-amino-1-(4-(5-((4-amino-2-(pentan-2-ylamino)imidazo[2,1-f][1,2,4]triazin-7-yl)methyl)-3-methylpyridin-2-yl)piperazin-1-yl)ethan-1-one]	10.9	> 10000	
CCC[C@H](C)Nc1nc(N)c2ncc(Cc3cnc(N4CCN(C(=O)CN(C)C)CC4)c(C)c3)n2n1 [Compound B219, (S)-1-(4-(5-((4-amino-2-(pentan-2-ylamino)imidazo[2,1-f][1,2,4]triazin-7-yl)methyl)-3-methylpyridin-2-yl)piperazin-1-yl)-2-(dimethylamino)ethan-1-one]		> 10000	2.4
CCCC(CC)Oc1nc(N)c2ncc(Cc3cnc(N4CCNCC4)c(C)c3)n2n1 (stereo not shown) [Compound B140, 2-(hexan-3-yloxy)-7-((5-methyl-6-(piperazin-1-yl)pyridin-3-yl)methyl)imidazo[2,1-f][1,2,4]triazin-4-amine]		530	8.7
CCCC(CCC)Nc1nc(N)c2ncc(Cc3cnc(N4CCC(CN(C)C)CC4)c(C)c3)n2n1 [Compound B190, 7-((6-(4-((dimethylamino)methyl)piperidin-1-yl)-5-methylpyridin-3-yl)methyl)-N2-(heptan-4-yl)imidazo[2,1-f][1,2,4]triazine-2,4-diamine]		> 10000	4.4
CCCC(CCC)Nc1nc(N)c2ncc(Cc3cnc(N4CCN(C(=O)CN(C)C)CC4)c(C)c3)n2n1 [Compound B195, 1-(4-(5-((4-amino-2-(heptan-4-ylamino)imidazo[2,1-f] [1,2,4]triazin-7-yl)methyl)-3-methylpyridin-2-yl)piperazin-1-yl)-2-(dimethylamino)ethan-1-one]		> 10000	2.8
CCC[C@H](C)Oc1nc(N)c2ncc(Cc3cnc(N4CCC(CN(C)C)CC4)c(C)c3)n2n1 [Compound B123, (S)-7-((6-(4-((dimethylamino)methyl)piperidin-1-yl)-5-methylpyridin-3-yl)methyl)-2-(pentan-2-yloxy)imidazo[2,1-f][1,2,4]triazin-4-amine]		310	1.9
CCC[C@H](C)Nc1nc(N)c2ncc(Cc3cnc(N4CCC(CN(C)C)CC4)c(C)c3)n2n1 (single isomer, unassigned) [Compound B147]		> 10000	2.2
CCC[C@H](C)Oc1nc(N)c2ncc(Cc3cnc(N4CCNCC4)c(C)c3)n2n1 [Compound B118, (S)-7-((5-methyl-6-(piperazin-1-yl)pyridin-3-yl)methyl)-2-(pentan-2-yloxy)imidazo[2,1-f][1,2,4]triazin-4-amine]		197	3.7
CCC[C@H](C)Oc1nc(N)c2ncc(Cc3cnc(N4CCC(N(C)C)CC4)c(C)c3)n2n1 [Compound B122, (S)-7-((6-(4-(dimethylamino)piperidin-1-yl)-5-methylpyridin-3-yl)methyl)-2-(pentan-2-yloxy)imidazo[2,1-f][1,2,4]triazin-4-amine]		262	2.6
